The record followed here is patent US8163758B2 (Parion Sciences, Inc., priority 2006, dated 2012).

Series [1] concerns the target T1, epithelial sodium channel (ENaC) (Canis lupus familiaris, UniProt A0A8I3MKE6+A0A8I3Q679+Q95165).
T1 construct: endogenous in cells; host or cells: primary canine bronchial epithelial cells cultured at air-liquid interface
T1 sequence (A0A8I3Q679 1-649): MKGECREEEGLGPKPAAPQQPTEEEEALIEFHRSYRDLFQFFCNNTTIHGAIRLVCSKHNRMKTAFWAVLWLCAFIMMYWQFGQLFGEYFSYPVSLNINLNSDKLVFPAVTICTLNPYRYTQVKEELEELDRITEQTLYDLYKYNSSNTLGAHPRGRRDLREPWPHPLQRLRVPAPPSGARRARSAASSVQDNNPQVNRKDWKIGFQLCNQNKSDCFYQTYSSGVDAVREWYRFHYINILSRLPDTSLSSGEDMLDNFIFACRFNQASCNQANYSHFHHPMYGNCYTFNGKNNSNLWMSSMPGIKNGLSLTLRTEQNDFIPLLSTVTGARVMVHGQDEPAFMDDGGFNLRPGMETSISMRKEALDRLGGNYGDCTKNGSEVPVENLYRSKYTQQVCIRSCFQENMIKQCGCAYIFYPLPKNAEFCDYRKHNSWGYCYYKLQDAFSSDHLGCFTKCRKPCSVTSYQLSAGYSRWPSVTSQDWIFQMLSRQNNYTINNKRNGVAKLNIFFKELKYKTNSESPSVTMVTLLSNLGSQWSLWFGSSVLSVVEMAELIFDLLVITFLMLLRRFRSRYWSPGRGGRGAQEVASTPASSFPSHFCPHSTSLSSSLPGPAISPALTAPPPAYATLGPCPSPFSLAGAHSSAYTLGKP
T1 sequence (Q95165 1-641): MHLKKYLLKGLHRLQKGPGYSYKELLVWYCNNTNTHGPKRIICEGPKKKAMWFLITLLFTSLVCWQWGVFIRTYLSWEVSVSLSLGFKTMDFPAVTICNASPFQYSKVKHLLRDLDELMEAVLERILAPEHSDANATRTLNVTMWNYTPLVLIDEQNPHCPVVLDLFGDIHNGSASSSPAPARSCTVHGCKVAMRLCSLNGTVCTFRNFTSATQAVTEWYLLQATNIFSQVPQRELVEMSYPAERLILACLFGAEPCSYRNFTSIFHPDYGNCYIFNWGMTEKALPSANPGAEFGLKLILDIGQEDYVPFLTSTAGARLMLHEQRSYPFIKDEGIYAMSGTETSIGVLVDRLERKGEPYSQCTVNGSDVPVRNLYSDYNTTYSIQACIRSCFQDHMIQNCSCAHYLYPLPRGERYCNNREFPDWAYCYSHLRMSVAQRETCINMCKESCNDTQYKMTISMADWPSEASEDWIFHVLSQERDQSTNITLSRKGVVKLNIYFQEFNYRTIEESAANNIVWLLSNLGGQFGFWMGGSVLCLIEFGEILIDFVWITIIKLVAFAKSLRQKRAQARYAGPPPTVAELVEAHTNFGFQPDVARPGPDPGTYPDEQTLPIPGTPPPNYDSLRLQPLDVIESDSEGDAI
T1 sequence (A0A8I3MKE6 1-646): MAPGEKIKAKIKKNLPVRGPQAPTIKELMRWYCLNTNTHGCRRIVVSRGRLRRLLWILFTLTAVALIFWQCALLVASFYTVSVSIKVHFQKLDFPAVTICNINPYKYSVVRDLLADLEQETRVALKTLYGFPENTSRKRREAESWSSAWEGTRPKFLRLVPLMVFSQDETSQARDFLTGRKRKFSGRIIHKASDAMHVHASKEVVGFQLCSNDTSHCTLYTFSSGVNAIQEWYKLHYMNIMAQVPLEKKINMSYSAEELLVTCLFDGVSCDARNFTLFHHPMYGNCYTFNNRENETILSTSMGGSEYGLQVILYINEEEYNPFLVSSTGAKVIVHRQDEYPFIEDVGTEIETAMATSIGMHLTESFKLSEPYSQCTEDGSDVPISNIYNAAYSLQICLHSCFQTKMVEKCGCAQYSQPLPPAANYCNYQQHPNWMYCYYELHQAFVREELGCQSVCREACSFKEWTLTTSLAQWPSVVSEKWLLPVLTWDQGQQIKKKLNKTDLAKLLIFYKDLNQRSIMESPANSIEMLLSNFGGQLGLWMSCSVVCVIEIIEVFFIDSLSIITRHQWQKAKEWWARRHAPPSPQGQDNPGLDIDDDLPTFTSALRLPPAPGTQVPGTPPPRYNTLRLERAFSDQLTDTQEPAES
The series can be described thus: ENaC blocking activity, short circuit current in airway epithelial monolayers in Ussing chambers. The series is classed as cell-based. Conditions: canine bronchial epithelia; for ENaC blocking potency relative to Amiloride: fold potency versus amiloride; for IC50: lumenal addition, propranolol 10 μM applied first. On the procedure: To assess epithelial sodium channel blocker potency the compounds of the present invention involves the determination of lumenal drug inhibition of airway epithelial sodium currents measured under short circuit current (ISC) using airway epithelial monolayers mounted in Ussing chambers. Cells obtained from freshly excised human, or dog airways are seeded onto porous 0.4 micrometer Transwell® Permeable Supports (Corning Inc. Acton, Mass.), cultured at air-liquid interface (ALI) conditions in hormonally defined media, and assayed for sodium transport activity (ISC) while bathed in Krebs Bicarbonate Ringer (KBR) in Ussing chambers. All test drug additions are to the lumenal bath with approximately half-log dose additions (from 1×10^−11 M to 6×10^−5 M), and the cumulative change in ISC (decreases) recorded. All drugs are prepared in dimethyl sulfoxide as stock solutions at a concentration of approximately 1×10^−2 and stored at −20° C. Six preparations are typically run in parallel; one preparation per run incorporates 552-02 as a positive control. Before the start of the concentration-effect relationship propranolol, a non-selective […], was applied to the lumenal bath (10 μM) to inhibit the beta agonist component of the designer multiple ligand (DML). All data from the voltage clamps are collected via a computer face and analyzed off-line.
Concentration-effect relationships for all compounds are considered and analyzed Using GraphPad Prism version 3.00 for Windows, GraphPad Software, San Diego Calif. USA. IC50 values, […], are calculated and compared to the 552-02 potency as a positive control.

Another series concerns the target T2, beta-adrenergic receptor (Canis lupus familiaris, UniProt P54833).
T2 construct: endogenous in cells; host or cells: primary canine bronchial epithelial cells cultured at air-liquid interface
As to the kind of experiment: Beta agonist activity, anion secretion short circuit current in airway epithelial monolayers in Ussing chambers. The series is classed as cell-based, canine. The protocol:
To assess beta agonist activity the compounds of the present invention involves the determination of lumenal drug addition to promote airway epithelial anion currents measured under short circuit current (ISC) using airway epithelial monolayers mounted in Ussing chambers. Cells obtained from freshly excised human, dog, or sheep airways are seeded onto porous 0.4 micron Transwell® Permeable Supports (Corning), cultured at air-liquid interface (ALI) conditions in hormonally defined media, and assayed for anion secretion (ISC) while bathed in Krebs Bicarbonate Ringer (KBR) in Ussing chambers. All test drug additions are to the lumenal bath with approximately half-log dose additions (from 8×10^−10 M to 6.5×10^−5 M), and the cumulative change in ISC (excitation) recorded. All drugs are prepared in dimethyl sulfoxide as stock solutions at a concentration from 1×10^−1 to 1×10^−2 M and stored at −20° C. […] Before the start of the concentration-effect relationship 552-02 a potent sodium channel blocker was applied to the apical surface (1 μM) to eliminate changes in Isc caused by sodium absorption. All data from the voltage clamps are collected via a computer interface and analyzed off-line.
Concentration-effect relationships for all compounds are considered and analyzed Using GraphPad Prism version 3.00 for Windows, GraphPad Software, San Diego Calif. USA.

Counter-ions that a name gives are not always drawn.

T2 sequence (P54833 whole entry): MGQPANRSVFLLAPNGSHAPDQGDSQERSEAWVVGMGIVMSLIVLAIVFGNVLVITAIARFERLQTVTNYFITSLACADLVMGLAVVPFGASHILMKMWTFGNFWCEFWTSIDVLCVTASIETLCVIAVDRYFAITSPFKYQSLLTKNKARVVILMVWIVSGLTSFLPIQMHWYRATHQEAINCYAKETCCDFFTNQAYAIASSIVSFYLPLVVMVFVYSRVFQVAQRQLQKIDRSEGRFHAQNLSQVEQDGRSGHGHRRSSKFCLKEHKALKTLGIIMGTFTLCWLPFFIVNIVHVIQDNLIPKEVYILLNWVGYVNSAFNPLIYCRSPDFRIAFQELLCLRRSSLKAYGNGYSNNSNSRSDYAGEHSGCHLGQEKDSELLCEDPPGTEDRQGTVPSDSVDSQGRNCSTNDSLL

By IC50 is commonly meant the concentration that inhibits the measured activity by half. Higher therefore signals lower potency. As for `N=C(NCCCCc1ccc(CCCCN(C[C@H](O)c2ccc(O)c(NC=O)c2)C[C@H](O)c2ccc(O)c(NC=O)c2)cc1)NC(=O)c1nc(Cl)c(N)nc1N` [Compound 14, N-{4-[4-(4-{bis-[2-(R)-hydroxy-2-(4-hydroxy-3-formylaminophenyl)-ethyl]amino}butyl)phenyl]butyl}-N′-(3,5-diamino-6-chloropyrazine-2-carbonyl)-guanidine diacetic acid salt], in series [1], the “ENaC blocking potency relative to Amiloride” value stood at 66 × Amiloride and the 50% inhibitory concentration (IC50) is 17.7 nM.

For `N=C(NCCCCc1ccc(CCCCNC[C@H](O)c2ccc(O)c(CO)c2)cc1)NC(=O)c1nc(Cl)c(N)nc1N` [Compound 63, N-(3,5-diamino-6-chloropyrazine-2-carbonyl)-N′-[4-(4-{4-[2-(R)-hydroxy-2-(4-hydroxy-3-hydroxymethylphenyl)ethylamino]butyl}phenyl)butyl]-guanidine], in series [1], the “ENaC blocking potency relative to Amiloride” value is on record as 154 × Amiloride and the IC50 came out at 6.5 nM.

Broadly, the melting point is the temperature, or range, at which the solid turns liquid. For the compound `CC(=O)Nc1cc([C@@H](O)CNC(C)CCCc2ccc(CCCCNC(=N)NC(=O)c3nc(Cl)c(N)nc3N)cc2)ccc1O` (stereo in doubt) (as salt: lactate) [Compound 175, N—(N-(4-(4-((S)-4-((R)-2-(3-acetamido-4-hydroxyphenyl)-2-hydroxyethylamino)pentyl)phenyl)butyl)carbamimidoyl)-3,5-diamino-6-chloropyrazine-2-carboxamide di-L-lactate], the melting point is 46 to 50 °C (dec.).

For orientation: EC50 means the concentration needed to bring the measured effect to its halfway point. A lower EC50 goes with a more potent agent. Compound `N=C(NCCCCc1ccc(CCCCNC[C@H](O)c2ccc(O)c(NC=O)c2)cc1)NC(=O)c1nc(Cl)c(N)nc1N` [Compound 12, N-(5-{2-[4-(4-{4-[N′-(3,5-diamino-6-chloropyrazine-2-carbonyl)guanidino]butyl}phenyl)butylamino]-1-(R)-hydroxyethyl}-2-hydroxyphenyl)formamide] came in with a melting point of 138 to 140 °C. Besides, the EC50 at beta-adrenergic receptor was found to be 151 nM. Besides, in series [1], the “ENaC blocking potency relative to Amiloride” value worked out at 132 × Amiloride and the IC50 was 5.7 nM.

Compound `CS(=O)(=O)Nc1cc([C@@H](O)CN(CCCCc2ccc(CCCCNC(=N)NC(=O)c3nc(Cl)c(N)nc3N)cc2)C[C@H](O)c2ccc(O)c(NS(C)(=O)=O)c2)ccc1O` [Compound 42, N-[5-(2-{[4-(4-{4-[N′-(3,5-diamino-6-chloropyrazine-2-carbonyl)-guanidino]butyl}phenyl)butyl]-[2-(R)-hydroxy-2-(4-hydroxy-3-methanesulfonyl-aminophenyl)ethyl]amino}-1-(R)-hydroxyethyl)-2-hydroxyphenyl]methane-sulfonamide] displayed a melting point of 148 to 150 °C. In series [1], the IC50 worked out at 21.6 nM.

`C[C@H](CCCc1ccc(CCCCNC(=N)NC(=O)c2nc(Cl)c(N)nc2N)cc1)NC[C@H](O)c1ccc(O)c(NC=O)c1` (as salt: lactate) (hydrate or solvate) [Compound 30, N-(5-{2-[4-(4-{4-[N′-(3,5-diamino-6-chloropyrazine-2-carbonyl)-guanidino]butyl}phenyl)-1-methylbutylamino]-1-(R)-hydroxyethyl}-2-hydroxyphenyl)formamide] gave a melting point of 116 to 119 °C.

For the compound `N=C(NCCCCc1ccc(OCCNC[C@H](O)c2ccc(O)c(NC=O)c2)cc1)NC(=O)c1nc(Cl)c(N)nc1N` [Compound 19, N-(5-{2-[2-(4-{4-[N-(3,5-diamino-6-chloropyrazine-2-carbonyl)guanidine]butyl}phenoxy)ethylamino]-1-(R)-hydroxylethyl}-2-hydroxyphenyl)-formamide], the melting point is 120 to 124 °C (dec.). Moreover, in series [1], the “ENaC blocking potency relative to Amiloride” value amounted to 120 × Amiloride and the IC50 was 10 nM.

The compound `N=C(NCCCCc1ccc(CCCCN(C[C@H](O)c2ccc(O)c(NC=O)c2)C[C@H](O)c2ccc(O)c(NC=O)c2)cc1)NC(=O)c1nc(Cl)c(N)nc1N` (as salt: salt) [Compound 14, N-{4-[4-(4-{bis-[2-(R)-hydroxy-2-(4-hydroxy-3-formylaminophenyl)-ethyl]amino}butyl)phenyl]butyl}-N′-(3,5-diamino-6-chloropyrazine-2-carbonyl)-guanidine diacetic acid salt] registered a melting point of 128 to 130 °C.

Regarding `N=C(NCCCCc1ccc(CCCCN(C[C@H](O)c2ccc(O)c(CO)c2)C[C@H](O)c2ccc(O)c(CO)c2)cc1)NC(=O)c1nc(Cl)c(N)nc1N` [Compound 67, N-{4-[4-(4-{bis-[2-(R)-hydroxy-2-(4-hydroxy-3-hydroxymethylphenyl)-ethyl]amino}butyl)-phenyl]butyl}-N′-(3,5-diamino-6-chloropyrazine-2-carbonyl)-guanidine], in series [1], the “ENaC blocking potency relative to Amiloride” value came out at 29 × Amiloride and half-maximal inhibition (IC50) was put at 22.2 nM.

In the case of `CC(CCCc1ccc(CCCCNC(=N)NC(=O)c2nc(Cl)c(N)nc2N)cc1)NC[C@H](O)c1cccc(O)c1` (stereo partly drawn) [Compound 143, 3,5-diamino-6-chloro-N-{N-[4-(4-{4-[(R)-2-hydroxy-2-(3-hydroxyphenyl)ethylamino]pentyl}phenyl)butyl]carbamimidoyl}pyrazine-2-carboxamide], the melting point fell in the range of 82 to 86 °C.
